In DBAASP:
Values after ≈ are worked out from the molar mass of the structure shown. One block for each molecule: values may come before it.

How the values were obtained:
Assay in all cases: ≥ marks a high value that may be exact or a test limit, other limits are often not marked, values filed in µg/mL are converted to µM
[1] = tested on: Bacillus subtilis ATCC 6633
[2] = tested on: Candida albicans ATCC 36232
[3] = tested on: Corynebacterium diphtheriae ATCC 8024
[4] = tested on: Escherichia coli ATCC 2592
[5] = tested on: Micrococcus luteus ATCC 9341
[6] = tested on: Pseudomonas aeruginosa ATCC 9027
[7] = tested on: Shigella flexneri ATCC 203
[8] = tested on: Staphylococcus aureus ATCC 6538
[9] = tested on: Staphylococcus aureus
[10] = tested on: Staphylococcus epidermidis ATCC 12228
[11] = tested on: Candida albicans ATCC 2002
[12] = tested on: Pseudomonas fluorescens ATCC 13525
[13] = tested on: Staphylococcus aureus ATCC 2592
[14] = tested on: Aspergillus fumigatus KCTC 4165
[15] = tested on: Bacillus subtilis KCTC 1918
[16] = tested on: Candida albicans TIMM 1768
[17] = tested on: Escherichia coli KCTC 1682
[18] = tested on: Pseudomonas aeruginosa KCTC 1637
[19] = tested on: Salmonella typhimurium KCTC 1926
[20] = tested on: Staphylococcus aureus KCTC 1621
[21] = tested on: Streptococcus pyogenes KCTC 3096
[22] = tested on: Streptococcus gordonii ATCC 10558
[23] = tested on: Streptococcus gordonii DL1
[24] = tested on: Streptococcus mutans ATCC 104495
[25] = tested on: Streptococcus mutans ATCC 25175
[26] = tested on: Streptococcus mutans T8
[27] = tested on: Streptococcus mutans UA140
[28] = tested on: Streptococcus mutans UA159
[29] = tested on: Streptococcus mutans comD
[30] = tested on: Streptococcus salivarius K12
[31] = tested on: Streptococcus sanguinis ATCC 10556
[32] = tested on: Streptococcus sanguinis NY101
[33] = tested on: Bacillus subtilis ATCC 23857
[34] = tested on: Candida albicans ATCC 10231
[35] = tested on: Escherichia coli ATCC 25922
[36] = tested on: Klebsiella aerogenes ATCC 13048
[37] = tested on: Staphylococcus aureus ATCC 29737
[38] = tested on: Staphylococcus epidermidis ATCC 12222

MIC [1]: 2.34 µM (≈ 6 µg/mL)
MIC [11]: 19.5 µM (≈ 50 µg/mL)
MIC [12]: 31.2 µM (≈ 79.9 µg/mL)
MIC [13]: 3.9 µM (≈ 9.99 µg/mL)
Compound: CC[C@H](C)[C@H](NC(=O)[C@H](C)NC(=O)[C@@H](NC(=O)[C@@H]1CCCN1C(=O)[C@H](CC(C)C)NC(=O)[C@@H](NC(=O)[C@H](CC(N)=O)NC(=O)[C@H](C)NC(=O)[C@H](C)NC(=O)[C@@H](NC(=O)[C@H](CCCCN)NC(=O)[C@H](CC(C)C)NC(=O)[C@H](C)NC(=O)[C@@H](NC(=O)CNC(=O)[C@H](Cc1ccccc1)NC(=O)[C@@H](N)Cc1ccccc1)[C@@H](C)O)[C@@H](C)CC)C(C)C)[C@@H](C)O)C(=O)N[C@H]1CSSC[C@@H](C(=O)O)NC(=O)[C@H](CCCCN)NC(=O)[C@H](CCCCN)NC(=O)[C@H](CC(C)C)NC(=O)[C@H]([C@@H](C)CC)NC(=O)[C@H](CCCCN)NC1=O [FFGTALKIAANVLPTAICKILKKC]

MIC [14]: 25 µM (≈ 54 µg/mL)
MIC [15]: 25 µM (≈ 54 µg/mL)
MIC [16]: ≥ 50 µM
MIC [17]: 25 µM (≈ 54 µg/mL)
MIC [18]: 6.25 µM (≈ 13.5 µg/mL)
MIC [19]: 12.5 µM (≈ 27 µg/mL)
MIC [20]: 25 µM (≈ 54 µg/mL)
MIC [21]: 25 µM (≈ 54 µg/mL)
Compound: CC[C@H](C)[C@H](NC(=O)[C@H](CCCCN)NC(=O)[C@H](CCCCN)NC(=O)[C@H](CC(C)C)NC(=O)[C@H](CCCCN)NC(=O)[C@H](CCC(=O)O)NC(=O)CN)C(=O)NCC(=O)N[C@@H](CCC(N)=O)C(=O)N[C@@H](CCCCN)C(=O)N[C@H](C(=O)N[C@@H](CCCCN)C(=O)N[C@@H](CCCCN)C(=O)N[C@@H](Cc1ccccc1)C(=O)N[C@@H](Cc1ccccc1)C(=O)N[C@@H](CCC(N)=O)C(=O)N[C@@H](CCCCN)C(=O)N[C@@H](CC(C)C)C(=O)O)[C@@H](C)CC [GEKLKKIGQKIKKFFQKL]

MIC [33]: 21.4 µM (≈ 31.3 µg/mL)
MIC [34]: 85.3 µM (≈ 125 µg/mL)
MIC [35]: > 341 µM
MIC [36]: ≥ 341 µM
MIC [6]: 43 µM (≈ 63 µg/mL)
MIC [37]: ≥ 341 µM
MIC [38]: ≥ 43 µM
Compound: CC(C)C[C@H](NC(=O)[C@H](CC(C)C)NC(=O)[C@H](CCCCN)NC(=O)[C@H](CCCCN)NC(=O)[C@H](CC(C)C)NC(=O)[C@H](CC(C)C)NC(=O)[C@H](CCCCN)NC(=O)[C@H](CCCCN)NC(=O)[C@H](CC(C)C)NC(=O)[C@@H](N)CC(C)C)C(=O)N[C@@H](CCCCN)C(=O)N[C@@H](CCCCN)C(N)=O [LLKKLLKKLLKK]

Further lines, the molecule ahead of its results:

Compound: CC[C@H](C)[C@H](NC(=O)[C@H](CC(=O)O)NC(=O)[C@H](CS)NC(=O)[C@@H](NC(=O)[C@@H](N)C(C)C)[C@@H](C)O)C(=O)N[C@@H](CC(C)C)C(=O)N[C@@H](CO)C(=O)N[C@H](C(=O)N[C@@H](CCC(=O)O)C(=O)N[C@@H](C)C(=O)N[C@@H](CCCCN)C(=O)NCC(=O)N[C@H](C(=O)N[C@@H](CCCCN)C(=O)N[C@@H](CC(C)C)C(N)=O)C(C)C)C(C)C [VTCDILSVEAKGVKL]
MIC [1]: ≥ 63.5 µM
MIC [2]: ≥ 63.5 µM
MIC [3]: ≥ 63.5 µM
MIC [4]: ≥ 63.5 µM
MIC [5]: ≥ 63.5 µM
MIC [6]: > 63.5 µM
MIC [7]: ≥ 63.5 µM
MIC [8]: > 63.5 µM
MIC [9]: > 63.5 µM
MIC [10]: > 63.5 µM

Compound: CC(C)C[C@H](NC(=O)[C@H](C)NC(=O)[C@H](CCC(N)=O)NC(=O)[C@@H](NC(=O)[C@H](Cc1ccccc1)NC(=O)[C@H](CO)NC(=O)[C@H](CCCN=C(N)N)NC(=O)[C@H](CC(N)=O)NC(=O)[C@H](Cc1ccccc1)NC(=O)[C@H](CC(C)C)NC(=O)[C@H](CCCN=C(N)N)NC(=O)[C@H](Cc1ccccc1)NC(=O)[C@H](Cc1ccccc1)NC(=O)[C@@H](N)[C@@H](C)O)[C@@H](C)O)C(=O)NCC(=O)N[C@@H](CCCCN)C(=O)O [TFFRLFNRSFTQALGK]
MIC [22]: ≥ 64 µM
MIC [23]: ≥ 60 µM
MIC [24]: ≥ 64 µM
MIC [25]: ≥ 60 µM
MIC [26]: ≥ 60 µM
MIC [27]: ≥ 64 µM
MIC [28]: ≥ 60 µM
MIC [29]: ≥ 60 µM
MIC [30]: ≥ 64 µM
MIC [31]: ≥ 64 µM
MIC [32]: ≥ 60 µM
